IC50 data for 20 molecules are collected here from patent US20240109917A1 (ACTELION PHARMACEUTICALS LTD, priority 2020, published 2024).

One may read the IC50 as the concentration that inhibits the measured activity by half.

PDGFRβ, sequence (Q05030 32-1097): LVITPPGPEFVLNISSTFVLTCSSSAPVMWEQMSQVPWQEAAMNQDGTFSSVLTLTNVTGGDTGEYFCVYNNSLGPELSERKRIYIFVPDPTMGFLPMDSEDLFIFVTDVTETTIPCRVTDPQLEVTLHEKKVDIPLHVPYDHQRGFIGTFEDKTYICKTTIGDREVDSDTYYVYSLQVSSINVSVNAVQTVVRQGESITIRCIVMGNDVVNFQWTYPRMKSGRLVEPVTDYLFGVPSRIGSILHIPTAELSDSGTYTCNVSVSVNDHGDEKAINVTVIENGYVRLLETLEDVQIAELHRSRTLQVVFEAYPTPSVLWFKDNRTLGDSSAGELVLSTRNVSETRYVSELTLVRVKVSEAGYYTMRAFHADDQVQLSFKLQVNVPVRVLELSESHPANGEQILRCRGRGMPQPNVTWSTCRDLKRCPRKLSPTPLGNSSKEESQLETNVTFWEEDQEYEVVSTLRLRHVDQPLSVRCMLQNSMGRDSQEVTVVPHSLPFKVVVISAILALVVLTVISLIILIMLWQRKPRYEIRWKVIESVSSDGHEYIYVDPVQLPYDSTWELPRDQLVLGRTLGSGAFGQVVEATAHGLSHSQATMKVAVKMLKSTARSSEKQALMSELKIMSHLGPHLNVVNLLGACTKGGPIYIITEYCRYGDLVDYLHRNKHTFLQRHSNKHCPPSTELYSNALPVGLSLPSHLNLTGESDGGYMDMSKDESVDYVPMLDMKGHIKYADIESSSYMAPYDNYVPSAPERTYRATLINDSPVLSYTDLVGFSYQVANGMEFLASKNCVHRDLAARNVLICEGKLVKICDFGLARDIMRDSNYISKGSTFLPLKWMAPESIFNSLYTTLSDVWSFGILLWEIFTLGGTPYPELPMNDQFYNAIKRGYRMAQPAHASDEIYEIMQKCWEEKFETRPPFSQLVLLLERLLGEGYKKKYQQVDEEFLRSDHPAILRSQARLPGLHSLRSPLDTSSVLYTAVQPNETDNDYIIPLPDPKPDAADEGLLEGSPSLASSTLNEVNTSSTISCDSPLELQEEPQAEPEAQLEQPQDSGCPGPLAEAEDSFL

The first experiment has as its target PDGFRβ (Rattus norvegicus (Rat), UniProt Q05030). The experiment in a line: PDGFRβ Cellular Assay (PDGFRb P-Y751 HTRF in A10 cells stimulated with PDGF-BB). The class given is cell-based. The following applies: PDGFR Cellular IC50. In a few lines:
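Phospho-Y751 PDGFRβ was measured by HTRF in lysates of A10 rat cells. Cells received compound for 3 hours before PDGF-BB stimulation (100 ng/mL working stock).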
A general note: Time-resolved FRET reads energy transfer from a long-lived donor to a nearby acceptor.
In turn, `Cc1ncc(NC(=O)CN2CCOC[C@@H]2C)cc1NC(=O)c1cnn2cc(-c3cnn(C)c3)sc12` [Example 74, (S)-2-(1-methyl-1H-pyrazol-4-yl)-N-(2-methyl-5-(2-(3-methylmorpholino)acetamido)pyridin-3-yl)pyrazolo[5,1-b]thiazole-7-carboxamide] displayed an IC50 of 41.6 nM.
Still for that read-out and setting: as for `Cc1ncc(NC(=O)CN2CCOC[C@H]2C)cc1NC(=O)c1cnn2cc(-c3cnn(C)c3)sc12` [Example 50, (R)-2-(1-methyl-1H-pyrazol-4-yl)-N-(2-methyl-5-(2-(3-methylmorpholino)acetamido)pyridin-3-yl)pyrazolo[5,1-b]thiazole-7-carboxamide], the figure is 27.3 nM.

The same experiment, now with this note: read-out: PDGFR Cellular IC50.
With `Cc1ncc(NC(=O)CN2CC3CC(C2)O3)cc1NC(=O)c1cnn2cc(-c3cnn(C)c3)sc12` [Example 45, N-(5-(2-(6-oxa-3-azabicyclo[3.1.1]heptan-3-yl)acetamido)-2-methylpyridin-3-yl)-2-(1-methyl-1H-pyrazol-4-yl)pyrazolo[5,1-b]thiazole-7-carboxamide], the IC50 was found to be 75.4 nM.
Take `Cc1ncc(NC(=O)CN2CCC[C@@H]2C)cc1NC(=O)c1cnn2cc(-c3cnn(CCO)c3)sc12` [Example 84, (S)-2-(1-(2-hydroxyethyl)-1H-pyrazol-4-yl)-N-(2-methyl-5-(2-(2-methylpyrrolidin-1-yl)acetamido)pyridin-3-yl)pyrazolo[5,1-b]thiazole-7-carboxamide]: the IC50 came to 40.2 nM.
As for `Cc1ncc(NC(=O)CN2CCC2(C)C)cc1NC(=O)c1cnn2cc(-c3cnn(C)c3)sc12` [Example 82, N-(5-(2-(2,2-dimethylazetidin-1-yl)acetamido)-2-methylpyridin-3-yl)-2-(1-methyl-1H-pyrazol-4-yl)pyrazolo[5,1-b]thiazole-7-carboxamide], the IC50 stood at 12.5 nM.
Regarding `CC[C@H]1COCCN1CC(=O)Nc1cnc(C)c(NC(=O)c2cnn3cc(-c4cnn(C)c4)sc23)c1` [Example 70, (S)—N-(5-(2-(3-ethylmorpholino)acetamido)-2-methylpyridin-3-yl)-2-(1-methyl-1H-pyrazol-4-yl)pyrazolo[5,1-b]thiazole-7-carboxamide], the IC50 turned out to be 6.4 nM.
With `Cc1ncc(NC(=O)CN2CCO[C@H](C)C2)cc1NC(=O)c1cnn2cc(-c3cnn(C)c3)sc12` [Example 54, (R)-2-(1-methyl-1H-pyrazol-4-yl)-N-(2-methyl-5-(2-(2-methylmorpholino)acetamido)pyridin-3-yl)pyrazolo[5,1-b]thiazole-7-carboxamide], the half-inhibitory concentration (IC50) amounted to 11.4 nM.
Turning to `Cc1ncc(NC(=O)CN2CCO[C@@H](C)C2)cc1NC(=O)c1cnn2cc(-c3cnn(C)c3)sc12` [Example 64, (S)-2-(1-methyl-1H-pyrazol-4-yl)-N-(2-methyl-5-(2-(2-methylmorpholino)acetamido)pyridin-3-yl)pyrazolo[5,1-b]thiazole-7-carboxamide], the IC50 was 8.6 nM.
Same read-out and setting: as for `Cc1ncc(NC(=O)CN2C[C@@H](C)O[C@@H](C)C2)cc1NC(=O)c1cnn2cc(-c3cnn(C)c3)sc12` [Example 53, N-(5-(2-((2R,6S)-2,6-dimethylmorpholino)acetamido)-2-methylpyridin-3-yl)-2-(1-methyl-1H-pyrazol-4-yl)pyrazolo[5,1-b]thiazole-7-carboxamide], the figure is 4.3 nM; as for `Cc1ncc(NC(=O)CN2[C@H](C)COC[C@H]2C)cc1NC(=O)c1cnn2cc(-c3cnn(C)c3)sc12` [Example 51, N-(5-(2-((3R,5R)-3,5-dimethylmorpholino)acetamido)-2-methylpyridin-3-yl)-2-(1-methyl-1H-pyrazol-4-yl)pyrazolo[5,1-b]thiazole-7-carboxamide], 6.8 nM; as for `Cc1ncc(NC(=O)CN2C[C@H](C)O[C@@H](C)C2)cc1NC(=O)c1cnn2cc(-c3cnn(C)c3)sc12` [Example 52, N-(5-(2-((2S,6S)-2,6-dimethylmorpholino)acetamido)-2-methylpyridin-3-yl)-2-(1-methyl-1H-pyrazol-4-yl)pyrazolo[5,1-b]thiazole-7-carboxamide], 0.9 nM.
Consider `Cc1ncc(NC(=O)CN2CCOC(C)(C)C2)cc1NC(=O)c1cnn2cc(-c3cnn(C)c3)sc12` [Example 67, N-(5-(2-(2,2-dimethylmorpholino)acetamido)-2-methylpyridin-3-yl)-2-(1-methyl-1H-pyrazol-4-yl)pyrazolo[5,1-b]thiazole-7-carboxamide], for which the IC50 stood at 8.3 nM.
On to `Cc1ncc(NC(=O)CN2CCC(F)(F)C2)cc1NC(=O)c1cnn2cc(-c3cnn(C)c3)sc12` [Example 73, N-(5-(2-(3,3-difluoropyrrolidin-1-yl)acetamido)-2-methylpyridin-3-yl)-2-(1-methyl-1H-pyrazol-4-yl)pyrazolo[5,1-b]thiazole-7-carboxamide], for which the IC50 was 3.2 nM.
Consider `Cc1ncc(NC(=O)CN2CCS(=O)(=O)CC2)cc1NC(=O)c1cnn2cc(-c3cnn(C)c3)sc12` [Example 59, N-(5-(2-(1,1-dioxidothiomorpholino)acetamido)-2-methylpyridin-3-yl)-2-(1-methyl-1H-pyrazol-4-yl)pyrazolo[5,1-b]thiazole-7-carboxamide], for which the IC50 was more than 3000 nM.
For the molecule `CC[C@@H]1CN(CC(=O)Nc2cnc(C)c(NC(=O)c3cnn4cc(-c5cnn(C)c5)sc34)c2)CCO1` [Example 65, (R)—N-(5-(2-(2-ethylmorpholino)acetamido)-2-methylpyridin-3-yl)-2-(1-methyl-1H-pyrazol-4-yl)pyrazolo[5,1-b]thiazole-7-carboxamide], the half-maximal inhibitory concentration (IC50) stood at 6.8 nM.
Take `Cc1ncc(NC(=O)CN2Cc3ncsc3C2)cc1NC(=O)c1cnn2cc(-c3cnn(C)c3)sc12` [Example 76, N-(5-(2-(4H-pyrrolo[3,4-d]thiazol-5 (6H)-yl)acetamido)-2-methylpyridin-3-yl)-2-(1-methyl-1H-pyrazol-4-yl)pyrazolo[5,1-b]thiazole-7-carboxamide]: the concentration for half-maximal inhibition (IC50) is 36.9 nM.
For the molecule `Cc1ncc(C(=O)NCCN2CC3CCC2CC3)cc1NC(=O)c1cnn2cc(-c3ccnc(N4CCOCC4)c3)sc12` [Example 484, N-(5-((2-(2-azabicyclo[2.2.2]octan-2-yl)ethyl)carbamoyl)-2-methylpyridin-3-yl)-2-(2-morpholinopyridin-4-yl)pyrazolo[5,1-b]thiazole-7-carboxamide], the concentration for half-maximal inhibition (IC50) stood at 44.1 nM.
Consider `Cc1ncc(NC(=O)CN2CCN(C)C(=O)C2)cc1NC(=O)c1cnn2cc(-c3cnn(C)c3)sc12` [Example 72, 2-(1-methyl-1H-pyrazol-4-yl)-N-(2-methyl-5-(2-(4-methyl-3-oxopiperazin-1-yl)acetamido)pyridin-3-yl)pyrazolo[5,1-b]thiazole-7-carboxamide], for which the IC50 was more than 3000 nM.
As for `COCC1CCCN1CC(=O)Nc1cnc(C)c(NC(=O)c2cnn3cc(-c4cnn(C)c4)sc23)c1` (centres unmarked) [Example 79, N-(5-(2-(2-(methoxymethyl)pyrrolidin-1-yl)acetamido)-2-methylpyridin-3-yl)-2-(1-methyl-1H-pyrazol-4-yl)pyrazolo[5,1-b]thiazole-7-carboxamide], the IC50 stood at 12.6 nM.
The same measure, in the same setting: for `COCCn1cc(-c2cn3ncc(C(=O)Nc4cc(NC(=O)CCN5CCC6(CC6)C5)cnc4C)c3s2)cn1` [Example 91, N-(5-(3-(5-azaspiro[2.4]heptan-5-yl)propanamido)-2-methylpyridin-3-yl)-2-(1-(2-methoxyethyl)-1H-pyrazol-4-yl)pyrazolo[5,1-b]thiazole-7-carboxamide] the value was 36.4 nM.
